Experimental findings from US10194854B2, “Method for non-invasive monitoring of fluorescent tracer agent with background separation corrections” (MediBeacon Inc., priority 2017, dated 2019) are described below.

The nature of this data set: Absorption and emission spectra of MB-102 (FIG. 3). The format is physicochemical. The source says:
By way of illustrative example, FIG. 3 is a graph summarizing the absorption spectra for HbO2 and Hb, as well as the absorption and emission spectra of frequency spectra of MB-102, an exogenous fluorescent agent in one aspect. Emission spectra for a blue LED light source and a green LED light source are also shown superimposed over the other spectra of FIG. 3. In this aspect, the system 200 may include a blue LED as the first light source 218, and the excitatory wavelength for the system 200 may be the isosbestic wavelength of about 450 nm. […] However, at wavelengths above about 500 nm, the HbO2/Hb spectra are less steeply sloped, and a broader band light source including, but not limited to, an LED with a bandpass filter may suffice for use as a first light source 218.
In another aspect, the excitatory wave length may be selected to enhance the contrast in light absorbance between the exogenous fluorescent agent and the chromophores within the tissues of the patient 202. […] Without being limited to any particular theory, a higher proportion of light illuminating the tissue of the patient 202 at a wavelength of about 450 nm will be absorbed by the MB-102 relative to the HbO2 and Hb, thus enhancing the efficiency of absorption by the MB-102 and reducing the intensity of light at the excitatory wavelength needed to elicit a detectable fluorescence signal. […]

Take `Nc1nc(C(=O)N[C@H](CO)C(=O)O)c(N)nc1C(=O)N[C@H](CO)C(=O)O` [MB-102]: the “light absorption relative to the light absorption of the HbO2 and the Hb” value (at the isosbestic wavelength of 452 nm) is “more than three-fold higher”. For the same compound, where the note is “emission spectrum”, the emission peak wavelength entry was “about 550 nm”.
